Assays:
[1] = biological target: D(1B) dopamine receptor (Homo sapiens) (UniProt P21918); experiment: Agonist activity at dopamine D5 receptor (unknown origin) expressed in CHO cells assessed as calcium mobilization at 3 uM; format: functional, cell-based
[2] = biological target: Cysteinyl leukotriene receptor 1 (Homo sapiens) (UniProt Q9Y271); experiment: Antagonist activity at CysLT1 receptor (unknown origin) expressed in CHO cells assessed as calcium mobilization at 3 uM; format: functional, cell-based
Chain of Cysteinyl leukotriene receptor 1 (Homo sapiens) (Q9Y271 whole entry): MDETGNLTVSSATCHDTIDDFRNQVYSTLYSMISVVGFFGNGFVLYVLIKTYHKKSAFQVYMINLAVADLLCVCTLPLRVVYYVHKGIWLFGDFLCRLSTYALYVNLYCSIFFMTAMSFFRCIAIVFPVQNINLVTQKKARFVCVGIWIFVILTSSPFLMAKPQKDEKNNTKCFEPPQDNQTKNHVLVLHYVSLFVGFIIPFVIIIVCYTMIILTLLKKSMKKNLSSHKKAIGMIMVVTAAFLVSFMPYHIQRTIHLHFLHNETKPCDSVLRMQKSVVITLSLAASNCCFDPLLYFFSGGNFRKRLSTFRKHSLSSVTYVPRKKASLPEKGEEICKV

[3] = biological target: Muscarinic acetylcholine receptor M1 (Homo sapiens, UniProt P11229); experiment: Agonist activity at human muscarinic M1 acetylcholine receptor expressed in CHO cells assessed as calcium mobilization by FLIPR assay; format: functional, cell-based
[4] = biological target: Adrenergic receptor alpha-1 (Homo sapiens) (UniProt P35348+P25100+P35368); experiment: Antagonist activity at adrenergic a1 receptor (unknown origin) expressed in CHO cells assessed as calcium mobilization at 3 uM; format: functional, cell-based
[5] = biological target: Adenosine receptor A2a (Homo sapiens) (UniProt P29274); experiment: Antagonist activity at adenosine a2a receptor (unknown origin) expressed in CHO cells assessed as calcium mobilization at 3 uM; format: functional, cell-based
Chain of Adenosine receptor A2a (Homo sapiens) (P29274 whole entry): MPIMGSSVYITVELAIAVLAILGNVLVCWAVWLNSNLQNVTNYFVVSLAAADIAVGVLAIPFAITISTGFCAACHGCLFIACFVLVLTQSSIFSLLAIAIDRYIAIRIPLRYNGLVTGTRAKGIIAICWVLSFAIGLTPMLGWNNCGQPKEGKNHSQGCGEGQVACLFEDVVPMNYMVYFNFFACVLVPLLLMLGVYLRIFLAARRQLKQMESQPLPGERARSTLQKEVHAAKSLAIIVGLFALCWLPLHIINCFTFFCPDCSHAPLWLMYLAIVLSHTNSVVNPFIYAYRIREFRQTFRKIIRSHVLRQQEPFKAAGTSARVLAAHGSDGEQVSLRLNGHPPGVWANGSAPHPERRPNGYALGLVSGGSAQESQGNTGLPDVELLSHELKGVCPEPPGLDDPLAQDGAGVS

[6] = biological target: Histamine H3 receptor (Homo sapiens) (UniProt Q9Y5N1); experiment: Antagonist activity at histamine H3 receptor (unknown origin) expressed in CHO cells assessed as calcium mobilization at 3 uM; format: functional, cell-based
[7] = biological target: Cysteinyl leukotriene receptor 2 (Homo sapiens) (UniProt Q9NS75); experiment: Agonist activity at CysLT2 receptor (unknown origin) expressed in CHO cells assessed as calcium mobilization at 3 uM; format: functional, cell-based
Chain of Cysteinyl leukotriene receptor 2 (Homo sapiens) (Q9NS75 whole entry): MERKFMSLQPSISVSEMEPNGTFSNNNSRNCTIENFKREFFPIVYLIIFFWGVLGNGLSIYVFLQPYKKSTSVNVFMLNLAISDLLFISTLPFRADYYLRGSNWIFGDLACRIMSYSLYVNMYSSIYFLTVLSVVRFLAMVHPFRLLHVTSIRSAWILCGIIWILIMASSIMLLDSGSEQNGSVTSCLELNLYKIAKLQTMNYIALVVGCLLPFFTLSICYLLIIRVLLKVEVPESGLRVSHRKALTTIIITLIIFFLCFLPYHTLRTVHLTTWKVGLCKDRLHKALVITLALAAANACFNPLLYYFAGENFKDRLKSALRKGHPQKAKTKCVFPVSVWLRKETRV

[8] = biological target: Cytochrome P450 1A2 (Homo sapiens, UniProt P05177); experiment: Inhibition of CYP1A2 (unknown origin); format: ADME
[9] = Ratio of drug level in brain to blood in rat; format: ADME, tissue-based
[10] = biological target: 5-hydroxytryptamine receptor 1A (Homo sapiens) (UniProt P08908); experiment: Antagonist activity at 5-HT1a receptor (unknown origin) expressed in CHO cells assessed as calcium mobilization at 3 uM; format: functional, cell-based
[11] = biological target: Beta-2 adrenergic receptor (Homo sapiens) (UniProt P07550); experiment: Agonist activity at adrenergic beta2 receptor (unknown origin) expressed in CHO cells assessed as calcium mobilization at 3 uM; format: functional, cell-based
[12] = biological target: D(1A) dopamine receptor (Homo sapiens) (UniProt P21728); experiment: Agonist activity at dopamine D1 receptor (unknown origin) expressed in CHO cells assessed as calcium mobilization at 3 uM; format: functional, cell-based
[13] = biological target: 5-hydroxytryptamine receptor 1E (Homo sapiens) (UniProt P28566); experiment: Antagonist activity at 5-HT1E receptor (unknown origin) expressed in CHO cells assessed as calcium mobilization at 3 uM; format: functional, cell-based
[14] = biological target: 5-hydroxytryptamine receptor 7 (Homo sapiens) (UniProt P34969); experiment: Agonist activity at 5-HT7B receptor (unknown origin) expressed in CHO cells assessed as calcium mobilization at 3 uM; format: functional, cell-based
[15] = biological target: Somatostatin receptor type 2 (Homo sapiens) (UniProt P30874); experiment: Agonist activity at SSTR2 receptor (unknown origin) expressed in CHO cells assessed as calcium mobilization at 3 uM; format: functional, cell-based
Chain of Somatostatin receptor type 2 (Homo sapiens) (P30874 whole entry): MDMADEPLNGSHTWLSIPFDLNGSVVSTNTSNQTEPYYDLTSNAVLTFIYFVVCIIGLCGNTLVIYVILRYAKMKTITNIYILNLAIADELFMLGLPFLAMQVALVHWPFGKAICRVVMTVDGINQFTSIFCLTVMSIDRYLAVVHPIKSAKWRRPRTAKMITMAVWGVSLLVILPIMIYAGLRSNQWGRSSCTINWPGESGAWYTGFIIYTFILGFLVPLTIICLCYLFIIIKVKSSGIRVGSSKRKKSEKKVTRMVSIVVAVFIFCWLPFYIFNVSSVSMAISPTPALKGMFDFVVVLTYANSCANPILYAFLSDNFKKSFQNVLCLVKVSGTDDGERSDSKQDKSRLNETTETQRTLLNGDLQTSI

[16] = biological target: Substance-P receptor (Homo sapiens) (UniProt P25103); experiment: Agonist activity at TaCR1 receptor (unknown origin) expressed in CHO cells assessed as calcium mobilization at 3 uM; format: functional, cell-based
Chain of Substance-P receptor (Homo sapiens) (P25103 whole entry): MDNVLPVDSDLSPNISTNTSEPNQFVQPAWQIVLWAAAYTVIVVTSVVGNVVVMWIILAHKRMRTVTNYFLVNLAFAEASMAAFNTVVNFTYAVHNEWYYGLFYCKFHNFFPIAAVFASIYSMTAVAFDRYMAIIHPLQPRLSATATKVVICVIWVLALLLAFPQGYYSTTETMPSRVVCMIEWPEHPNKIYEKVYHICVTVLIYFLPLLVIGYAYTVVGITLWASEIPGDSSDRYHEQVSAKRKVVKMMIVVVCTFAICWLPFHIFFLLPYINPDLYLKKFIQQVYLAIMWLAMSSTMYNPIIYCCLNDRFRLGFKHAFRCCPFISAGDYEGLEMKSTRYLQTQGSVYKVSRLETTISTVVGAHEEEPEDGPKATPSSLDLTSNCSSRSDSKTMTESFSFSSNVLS

[17] = tested on: Rattus norvegicus; experiment: Antipsychotic-like activity in sc dosed rat assessed as inhibition of METH-induced locomotor hyperactivity; format: functional
[18] = biological target: D(3) dopamine receptor (Homo sapiens) (UniProt P35462); experiment: Agonist activity at dopamine D3L receptor (unknown origin) expressed in CHO cells assessed as calcium mobilization at 3 uM; format: functional, cell-based
[19] = biological target: 5-hydroxytryptamine receptor 4 (Homo sapiens) (UniProt Q13639); experiment: Antagonist activity at 5-HT4B receptor (unknown origin) expressed in CHO cells assessed as calcium mobilization at 3 uM; format: functional, cell-based
[20] = biological target: 5-hydroxytryptamine receptor 1F (Homo sapiens) (UniProt P30939); experiment: Antagonist activity at 5-HT1F receptor (unknown origin) expressed in CHO cells assessed as calcium mobilization at 3 uM; format: functional, cell-based
Chain of 5-hydroxytryptamine receptor 1F (Homo sapiens) (P30939 whole entry): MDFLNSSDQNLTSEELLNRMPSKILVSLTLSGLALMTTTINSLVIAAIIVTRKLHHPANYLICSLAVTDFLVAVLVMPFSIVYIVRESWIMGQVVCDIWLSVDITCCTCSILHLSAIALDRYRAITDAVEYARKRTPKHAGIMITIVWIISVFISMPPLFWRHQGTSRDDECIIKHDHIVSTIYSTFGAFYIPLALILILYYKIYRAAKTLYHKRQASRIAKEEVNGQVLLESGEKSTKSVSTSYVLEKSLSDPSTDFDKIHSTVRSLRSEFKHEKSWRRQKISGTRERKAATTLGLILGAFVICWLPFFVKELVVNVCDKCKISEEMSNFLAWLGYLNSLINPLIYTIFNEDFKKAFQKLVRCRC

[21] = biological target: D(2) dopamine receptor (Homo sapiens) (UniProt P14416); experiment: Agonist activity at dopamine D2L receptor (unknown origin) expressed in CHO cells assessed as calcium mobilization at 3 uM; format: functional, cell-based
Chain of D(2) dopamine receptor (Homo sapiens) (P14416 whole entry): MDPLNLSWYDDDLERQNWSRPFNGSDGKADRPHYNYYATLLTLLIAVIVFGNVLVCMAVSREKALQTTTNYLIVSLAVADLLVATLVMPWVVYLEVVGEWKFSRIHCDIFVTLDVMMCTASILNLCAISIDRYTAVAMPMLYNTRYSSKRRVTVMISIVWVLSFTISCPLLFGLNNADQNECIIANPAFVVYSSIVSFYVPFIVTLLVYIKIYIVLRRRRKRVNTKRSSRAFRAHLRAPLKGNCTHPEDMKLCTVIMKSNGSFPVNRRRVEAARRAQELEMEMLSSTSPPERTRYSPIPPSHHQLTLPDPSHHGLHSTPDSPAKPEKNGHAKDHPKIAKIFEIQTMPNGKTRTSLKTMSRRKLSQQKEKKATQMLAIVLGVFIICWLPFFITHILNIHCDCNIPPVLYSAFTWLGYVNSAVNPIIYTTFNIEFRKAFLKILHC

[22] = biological target: 5-hydroxytryptamine receptor 6 (Homo sapiens) (UniProt P50406); experiment: Agonist activity at 5-HT6 receptor (unknown origin) expressed in CHO cells assessed as calcium mobilization at 3 uM; format: functional, cell-based
[23] = biological target: Nuclear receptor subfamily 1 group I member 2 (Homo sapiens, UniProt O75469); experiment: Induction of human PXR; format: ADME
[24] = biological target: Adenosine receptor A2a (Homo sapiens) (UniProt P29274); experiment: Agonist activity at adenosine a2a receptor (unknown origin) expressed in CHO cells assessed as calcium mobilization at 3 uM; format: functional, cell-based
[25] = biological target: Alpha-1B adrenergic receptor (Homo sapiens) (UniProt P35368); experiment: Agonist activity at adrenergic a1B receptor (unknown origin) expressed in CHO cells assessed as calcium mobilization at 3 uM; format: functional, cell-based
Chain of Alpha-1B adrenergic receptor (Homo sapiens) (P35368 whole entry): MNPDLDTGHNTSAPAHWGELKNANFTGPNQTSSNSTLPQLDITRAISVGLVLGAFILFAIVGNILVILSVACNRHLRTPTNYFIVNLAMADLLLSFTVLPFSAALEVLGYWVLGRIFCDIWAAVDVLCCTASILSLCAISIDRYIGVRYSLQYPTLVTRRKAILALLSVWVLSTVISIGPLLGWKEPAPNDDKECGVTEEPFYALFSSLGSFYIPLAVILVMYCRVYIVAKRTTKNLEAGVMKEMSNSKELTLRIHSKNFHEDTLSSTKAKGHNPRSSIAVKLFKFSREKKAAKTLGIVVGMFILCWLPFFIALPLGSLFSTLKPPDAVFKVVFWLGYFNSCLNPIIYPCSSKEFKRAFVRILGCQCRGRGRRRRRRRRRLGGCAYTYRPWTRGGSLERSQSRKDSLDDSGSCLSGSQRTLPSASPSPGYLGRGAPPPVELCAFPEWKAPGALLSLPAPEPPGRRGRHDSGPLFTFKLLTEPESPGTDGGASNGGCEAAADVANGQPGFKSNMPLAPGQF

[26] = biological target: D(4) dopamine receptor (Homo sapiens) (UniProt P21917); experiment: Antagonist activity at dopamine D4 receptor (unknown origin) expressed in CHO cells assessed as calcium mobilization at 3 uM; format: functional, cell-based
[27] = biological target: D(2) dopamine receptor (Homo sapiens) (UniProt P14416); experiment: Antagonist activity at dopamine D2L receptor (unknown origin) expressed in CHO cells assessed as calcium mobilization at 3 uM; format: functional, cell-based
[28] = biological target: Muscarinic acetylcholine receptor M4 (Homo sapiens, UniProt P08173); experiment: Partial agonist activity at human muscarinic M4 acetylcholine receptor expressed in CHO cells co-expressing Galpha16 assessed as calcium mobilization by FLIPR assay; format: functional, cell-based
[29] = biological target: Alpha-2A adrenergic receptor (Homo sapiens) (UniProt P08913); experiment: Agonist activity at adrenergic a2a receptor (unknown origin) expressed in CHO cells assessed as calcium mobilization at 3 uM; format: functional, cell-based
[30] = biological target: 5-hydroxytryptamine receptor 2C (Homo sapiens) (UniProt P28335); experiment: Antagonist activity at 5-HT2C receptor (unknown origin) expressed in CHO cells assessed as calcium mobilization at 3 uM; format: functional, cell-based
[31] = biological target: P2Y purinoceptor 1 (Homo sapiens) (UniProt P47900); experiment: Antagonist activity at P2Y1 receptor (unknown origin) expressed in CHO cells assessed as calcium mobilization at 3 uM; format: functional, cell-based
[32] = biological target: Aryl hydrocarbon receptor (Homo sapiens, UniProt P35869); experiment: Induction of human AhR
Chain of Aryl hydrocarbon receptor (P35869 whole entry): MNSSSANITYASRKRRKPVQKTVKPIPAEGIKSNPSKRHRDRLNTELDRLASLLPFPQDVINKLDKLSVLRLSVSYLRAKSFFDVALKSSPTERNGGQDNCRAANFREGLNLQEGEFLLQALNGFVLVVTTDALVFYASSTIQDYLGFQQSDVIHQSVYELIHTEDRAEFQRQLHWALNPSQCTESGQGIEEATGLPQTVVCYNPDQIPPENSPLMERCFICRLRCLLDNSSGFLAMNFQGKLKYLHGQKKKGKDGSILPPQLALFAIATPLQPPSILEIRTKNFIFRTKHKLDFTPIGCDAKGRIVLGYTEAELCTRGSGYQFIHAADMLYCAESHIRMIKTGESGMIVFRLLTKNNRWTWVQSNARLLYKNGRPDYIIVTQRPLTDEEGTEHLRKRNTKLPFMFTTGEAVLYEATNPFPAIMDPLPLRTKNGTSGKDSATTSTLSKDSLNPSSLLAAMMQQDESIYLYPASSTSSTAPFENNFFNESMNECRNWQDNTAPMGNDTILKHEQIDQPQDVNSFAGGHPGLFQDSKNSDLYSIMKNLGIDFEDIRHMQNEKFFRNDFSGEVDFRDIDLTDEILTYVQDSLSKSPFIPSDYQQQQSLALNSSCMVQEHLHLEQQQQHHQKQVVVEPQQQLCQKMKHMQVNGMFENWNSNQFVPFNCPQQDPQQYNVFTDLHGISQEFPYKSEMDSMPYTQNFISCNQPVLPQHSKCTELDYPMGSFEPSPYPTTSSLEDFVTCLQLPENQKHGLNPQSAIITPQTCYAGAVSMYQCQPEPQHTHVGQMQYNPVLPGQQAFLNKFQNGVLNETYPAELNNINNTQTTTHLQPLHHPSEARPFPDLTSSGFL

[33] = biological target: Alpha-1A adrenergic receptor (Homo sapiens) (UniProt P35348); experiment: Binding affinity to adrenergic alpha1A receptor (unknown origin) at 3 uM by radioligand-binding assay
[34] = biological target: Adenosine receptor A3 (Homo sapiens) (UniProt P0DMS8); experiment: Agonist activity at adenosine a3 receptor (unknown origin) expressed in CHO cells assessed as calcium mobilization at 3 uM; format: functional, cell-based
Chain of Adenosine receptor A3 (Homo sapiens) (P0DMS8 whole entry): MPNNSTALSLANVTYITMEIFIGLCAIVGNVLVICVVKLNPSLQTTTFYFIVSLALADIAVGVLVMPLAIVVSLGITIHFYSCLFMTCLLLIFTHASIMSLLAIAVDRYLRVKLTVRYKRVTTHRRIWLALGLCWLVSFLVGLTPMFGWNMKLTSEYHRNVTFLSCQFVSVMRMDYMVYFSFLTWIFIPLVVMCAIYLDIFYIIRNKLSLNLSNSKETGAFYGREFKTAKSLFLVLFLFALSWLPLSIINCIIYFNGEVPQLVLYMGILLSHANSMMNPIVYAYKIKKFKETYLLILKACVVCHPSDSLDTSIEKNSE

[35] = biological target: Adenosine receptor A2b (Homo sapiens) (UniProt P29275); experiment: Agonist activity at adenosine a2B receptor (unknown origin) expressed in CHO cells assessed as calcium mobilization at 3 uM
[36] = biological target: Nociceptin receptor (Homo sapiens) (UniProt P41146); experiment: Agonist activity at OPRL1 receptor (unknown origin) expressed in CHO cells assessed as calcium mobilization at 3 uM; format: functional, cell-based
Chain of Nociceptin receptor (Homo sapiens) (P41146 whole entry): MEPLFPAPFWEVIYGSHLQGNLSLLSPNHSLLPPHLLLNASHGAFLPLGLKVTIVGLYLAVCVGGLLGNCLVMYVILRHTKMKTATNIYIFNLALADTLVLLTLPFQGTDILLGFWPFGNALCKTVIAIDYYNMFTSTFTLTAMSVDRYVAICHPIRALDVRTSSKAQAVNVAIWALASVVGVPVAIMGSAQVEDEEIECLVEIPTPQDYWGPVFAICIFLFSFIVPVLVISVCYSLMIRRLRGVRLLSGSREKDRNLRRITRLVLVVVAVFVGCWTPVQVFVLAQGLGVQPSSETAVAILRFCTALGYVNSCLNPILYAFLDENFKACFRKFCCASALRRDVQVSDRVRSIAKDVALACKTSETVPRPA

SMILES: CCOC(=O)N1[C@@H]2CC[C@H]1C[C@H](CN1CC[C@@H](N3Cc4ccccc4NC3=O)C1)C2
- Activity [1]: 0.08%
- inhibition [2]: 0.46%
- EC50 [3]: 14 nM
- inhibition [4]: 5.57%
- inhibition [5]: 2.25%
- inhibition [6]: 13.7%
- Activity [7]: 0.03%
- IC50 [8]: > 2000 nM
- Kp [9]: 2.42
- inhibition [10]: -3.46%
- Activity [11]: -0.21%
- Activity [12]: 0.49%
- inhibition [13]: -0.04%
- Activity [14]: -1.12%
- Activity [15]: 0.39%
- Activity [16]: -0.13%
- ED50 [17]: 3 mg/kg
- Activity [18]: -2.42%
- inhibition [19]: -1.57%
- inhibition [20]: 1.04%
- Activity [21]: 0.06%
- Activity [22]: -0.54%
- Activity [23]: Not Active
- Activity [24]: 0.38%
- Activity [25]: 0.82%
- inhibition [26]: 11.6%
- inhibition [27]: 13.2%
- EC50 [28]: 86 nM
- Activity [29]: -0.95%
- inhibition [30]: -5.25%
- inhibition [31]: -8.79%
- Activity [32]: Not Active
- inhibition [33]: 6%
- Activity [34]: 1.07%
- Activity [35]: -0.01%
- Activity [36]: 0.23%

— ChEMBL document CHEMBL3632469, “Discovery of dihydroquinazolinone derivatives as potent, selective, and CNS-penetrant M(1) and M(4) muscarinic acetylcholine receptors agonists” (Bioorg Med Chem Lett, 2015)
